Results published in PubChem BioAssay AID743308 (Sanford-Burnham Center for Chemical Genomics, 2014).

Target: Low molecular weight phosphotyrosine protein phosphatase (Homo sapiens) (UniProt P24666)
Experiment: inhibition of human LMPTP enzyme activity – biochemical, absorbance, pNPP substrate, LMPTP-A isoform, set 2, orthogonal assay, dose response (AID 743308)
Conditions: recombinant LMPTP-A

Sequence of Low molecular weight phosphotyrosine protein phosphatase (Homo sapiens) (P24666 whole entry, looked up, canonical isoform): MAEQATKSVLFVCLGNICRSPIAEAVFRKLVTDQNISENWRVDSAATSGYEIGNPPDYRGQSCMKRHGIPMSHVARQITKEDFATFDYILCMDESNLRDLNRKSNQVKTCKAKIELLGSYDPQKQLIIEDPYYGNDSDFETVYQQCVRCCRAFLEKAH

IC50: 3.52 µM
SMILES: COc1ccc(-c2cc(NCCCN3CCCCC3)c3ccccc3n2)cc1
